Results on six compounds are retold here after patent US7488712B2, “Histone deacetylase inhibitors and methods for producing the same” (Kyushu Institute of Technology, priority 2002, dated 2009).

For test [1], the system named is human wild-type p21 promoter. The experiment in a line: p21 promoter-inducing activity (luciferase) in MFLL-9 cells. The format is cell-based. The protocol: The HDAC inhibition activity in vivo was measured using p21 promoter-inducing activity as an index, as shown below. The MFLL-9 cells employed for the experiments stably maintained fusion genes of human wild-type p21 promoter and luciferase (Dr. B. Vogelstaein). Using phenol red-free DMEM medium comprising 10% FBS, cultivation was carried out in a steam-saturated incubator at 37° C. with 5% carbon dioxide. The MFLL-9 cells were plated at a density of 85,000 cells/well on a 96-well microtiter plate, each in 99 μl of the above-mentioned medium. These were then cultivated for six hours. One μl of test compound solution was added to each well, which was then cultured for another 18 hours.
The intensity of luminescence caused by the product of the enzyme reaction for intracellular luciferase expression was measured using Luc Lite (Packard BioScience Company). A group in which test compounds were not added was used as a negative control group. The values measured for this group were used as a standard. The activities for each concentration of added test compound were expressed relative to the above-mentioned standard value, 1.

The target in another test is T1, human HDAC4 (Homo sapiens, UniProt P56524).
T1 construct: FLAG; made in house; host or cells: 293T cells (transient transfection, anti-FLAG immunoprecipitation, FLAG peptide elution)
The experiment in a line: In vitro HDAC inhibition activity, [3H]-acetylated histone substrate, HDAC4. Type of test: biochemical. The protocol:
(§1) To measure HDAC inhibition activity, an HDAC solution was prepared as described below. 1×10^7 of 293T cells were plated on to a 100-mm dish and, after 24 hours, transfected with vectors (1 μg) expressing human HDAC1 and HDAC4 or mouse HDAC6, using LipofectAmine 2000 reagent (Life Technologies, Inc. Gaithersburg, Md.). […] The vectors were introduced for five hours in OPTI-MEM. The medium was then replaced with Dulbecco's modified Eagle's medium (DMEM), and incubated for 19 hours. The cells were washed with PBS, suspended in lysis buffer (50 mM Tris-HCl (pH7.5), 120 mM NaCl, 5 mM EDTA, and 0.5% Nonidet P-40), and sonicated. The supernatant was collected by centrifugation and nonspecific protein was removed using Protein A/G plus agarose beads (Santa Cruz Biotechnologies, Inc.). Anti-FLAG M2 antibodies (Sigma-Aldrich, Inc.) were added to the supernatant of cells expressing HDAC1 or HDAC4. Anti-HA antibodies (clone 3F10, Roche Molecular Biochemicals) were added to the supernatant of cells expressing HDAC6. Reaction in the respective mixtures was carried out at 4° C. for one hour. The resulting reaction mixtures were independently mixed with agarose beads and further reacted at 4° C. for one hour. The agarose beads were washed three times with lysis buffer and then washed once with HD buffer (20 mM Tris-HCl (pH8.0), 150 mM NaCl, 10% glycerol, and a complete protease inhibitor cocktail (Boehringer Mannheim, Germany)). […] The HDAC reaction solution was used for determining HDAC inhibition activity as shown below.
(§2) In vitro HDAC inhibition activity was evaluated as follows: A test compound was dissolved in DMSO and adjusted to 10 mM. This was used as an inhibitor stock solution. […] These reactions were stopped by adding 10 μl HCl. The [^3H] acetic acid excised by the enzyme reaction was extracted with ethyl acetate and subjected to radioactive dose measurement. As a negative control, the same procedure was carried out in which no inhibitor was added to the reaction system. The inhibition activity was expressed as a 50% inhibition concentration (“IC50 (nM)”) of the HDAC activity in the negative control (Tables 1 to 4).

In a further test the target is T2, mouse HDAC6 (Mus musculus, UniProt Q9Z2V5).
T2 construct: HA; made in house; host or cells: 293T cells (transient transfection, anti-HA immunoprecipitation, HA peptide elution)
T2 sequence (Q9Z2V5 1-1149): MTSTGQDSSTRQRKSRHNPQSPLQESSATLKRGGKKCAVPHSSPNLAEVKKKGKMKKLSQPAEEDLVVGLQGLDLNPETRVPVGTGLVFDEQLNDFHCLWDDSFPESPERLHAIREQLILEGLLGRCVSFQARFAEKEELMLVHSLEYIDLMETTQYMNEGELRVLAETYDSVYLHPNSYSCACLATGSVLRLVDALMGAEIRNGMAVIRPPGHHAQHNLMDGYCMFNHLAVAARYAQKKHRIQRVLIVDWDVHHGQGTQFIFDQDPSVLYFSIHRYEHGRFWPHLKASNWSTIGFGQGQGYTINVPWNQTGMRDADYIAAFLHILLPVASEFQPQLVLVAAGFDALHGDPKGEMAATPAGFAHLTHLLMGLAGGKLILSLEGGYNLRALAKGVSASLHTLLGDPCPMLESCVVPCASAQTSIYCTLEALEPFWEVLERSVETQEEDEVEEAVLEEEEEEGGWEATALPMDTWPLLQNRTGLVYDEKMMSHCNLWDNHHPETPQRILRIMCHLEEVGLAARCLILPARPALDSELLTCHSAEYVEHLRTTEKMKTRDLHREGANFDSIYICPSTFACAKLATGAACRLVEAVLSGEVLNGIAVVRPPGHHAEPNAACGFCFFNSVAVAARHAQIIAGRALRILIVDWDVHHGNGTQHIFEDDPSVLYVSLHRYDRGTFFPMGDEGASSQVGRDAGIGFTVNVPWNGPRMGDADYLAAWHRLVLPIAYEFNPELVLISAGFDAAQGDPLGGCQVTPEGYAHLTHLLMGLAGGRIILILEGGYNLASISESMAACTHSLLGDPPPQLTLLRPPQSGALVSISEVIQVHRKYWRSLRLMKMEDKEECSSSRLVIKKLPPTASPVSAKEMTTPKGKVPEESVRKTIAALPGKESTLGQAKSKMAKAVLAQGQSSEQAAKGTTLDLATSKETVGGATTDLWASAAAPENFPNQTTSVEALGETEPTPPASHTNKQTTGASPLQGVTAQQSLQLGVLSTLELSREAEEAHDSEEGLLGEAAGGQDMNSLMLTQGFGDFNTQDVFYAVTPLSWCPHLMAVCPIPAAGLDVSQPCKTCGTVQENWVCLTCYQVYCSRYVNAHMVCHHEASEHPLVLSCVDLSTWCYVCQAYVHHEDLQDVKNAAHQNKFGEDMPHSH
The experiment in a line: In vitro HDAC inhibition activity, [3H]-acetylated histone substrate, HDAC6. The format is biochemical. The procedure: as §1, §2

A further test concerns the target T3, human HDAC1 (Homo sapiens, UniProt Q13547).
T3 construct: FLAG; made in house; host or cells: 293T cells (transient transfection, anti-FLAG immunoprecipitation, FLAG peptide elution)
Nature of the test: In vitro HDAC inhibition activity, [3H]-acetylated histone substrate, HDAC1. The format is biochemical. The procedure: as §1, §2

[2] abbreviates: Table 3, hybrid with DTT (/DTT).
[3] abbreviates: Table 1, X = H (coexisting with DTT), 50% of maximum active value for TSA.
Where [4] appears, read: Table 1, X = H (coexisting with DTT).

*1 amine or outer side, *2 acyl side, *3 side chain or, on linkers, in order; H or OH if unused. Where a SMILES comes first, the peptide text is derived from it. [ ]: non-standard residue; d: D form. The star is where a group is joined. hNle(7-SH) = O=C([C@H](CCCCCS[*:3])N[*:1])[*:2]; X1 = CN(C)C(=O)c1cc(S*)ccc1[N+](=O)[O-]; Gly((CH2)5SH) = N[C@@H](CCCCCS)C(=O)O Bounds are passed on as bounds.

T1 sequence (O15379 whole entry partner): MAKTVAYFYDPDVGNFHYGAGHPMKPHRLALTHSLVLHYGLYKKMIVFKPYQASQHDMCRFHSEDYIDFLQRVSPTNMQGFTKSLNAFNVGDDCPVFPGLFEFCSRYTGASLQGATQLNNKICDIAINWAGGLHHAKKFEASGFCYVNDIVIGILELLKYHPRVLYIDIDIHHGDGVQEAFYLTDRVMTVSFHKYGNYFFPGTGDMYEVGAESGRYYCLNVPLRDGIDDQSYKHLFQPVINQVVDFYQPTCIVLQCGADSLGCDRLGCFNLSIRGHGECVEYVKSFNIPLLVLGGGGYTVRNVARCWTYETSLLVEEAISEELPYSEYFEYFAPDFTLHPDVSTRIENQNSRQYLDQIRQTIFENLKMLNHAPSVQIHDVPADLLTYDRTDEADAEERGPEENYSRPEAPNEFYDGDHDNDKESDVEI
T1 sequence (P56524 whole entry): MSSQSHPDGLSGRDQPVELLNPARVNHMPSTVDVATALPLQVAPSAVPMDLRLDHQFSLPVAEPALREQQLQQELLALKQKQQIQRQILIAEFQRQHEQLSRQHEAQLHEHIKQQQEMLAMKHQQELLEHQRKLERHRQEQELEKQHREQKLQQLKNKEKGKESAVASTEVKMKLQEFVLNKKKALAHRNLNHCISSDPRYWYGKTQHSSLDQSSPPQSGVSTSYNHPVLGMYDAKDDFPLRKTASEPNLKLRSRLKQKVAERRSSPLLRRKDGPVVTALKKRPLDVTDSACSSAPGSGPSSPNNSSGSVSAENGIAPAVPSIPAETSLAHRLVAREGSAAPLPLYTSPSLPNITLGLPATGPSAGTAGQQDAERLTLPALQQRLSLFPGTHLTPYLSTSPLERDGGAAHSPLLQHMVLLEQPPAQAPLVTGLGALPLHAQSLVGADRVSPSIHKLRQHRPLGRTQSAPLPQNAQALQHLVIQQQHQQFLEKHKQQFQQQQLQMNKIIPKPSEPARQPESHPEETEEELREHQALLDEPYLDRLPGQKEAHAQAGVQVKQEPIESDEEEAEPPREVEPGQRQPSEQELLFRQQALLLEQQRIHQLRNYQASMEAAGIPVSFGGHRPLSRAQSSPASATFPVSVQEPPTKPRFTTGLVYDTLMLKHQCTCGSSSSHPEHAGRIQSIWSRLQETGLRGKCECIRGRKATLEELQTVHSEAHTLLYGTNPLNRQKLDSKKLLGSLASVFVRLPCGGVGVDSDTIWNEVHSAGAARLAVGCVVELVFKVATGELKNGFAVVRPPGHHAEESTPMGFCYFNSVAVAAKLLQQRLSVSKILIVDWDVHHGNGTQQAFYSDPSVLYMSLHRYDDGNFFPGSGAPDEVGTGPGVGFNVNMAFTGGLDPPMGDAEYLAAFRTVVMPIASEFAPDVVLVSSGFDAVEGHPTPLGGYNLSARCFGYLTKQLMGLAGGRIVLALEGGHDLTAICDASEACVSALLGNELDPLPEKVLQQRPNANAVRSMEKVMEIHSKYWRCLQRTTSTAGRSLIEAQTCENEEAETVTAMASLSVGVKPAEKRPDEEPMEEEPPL
T3 sequence (Q13547 whole entry): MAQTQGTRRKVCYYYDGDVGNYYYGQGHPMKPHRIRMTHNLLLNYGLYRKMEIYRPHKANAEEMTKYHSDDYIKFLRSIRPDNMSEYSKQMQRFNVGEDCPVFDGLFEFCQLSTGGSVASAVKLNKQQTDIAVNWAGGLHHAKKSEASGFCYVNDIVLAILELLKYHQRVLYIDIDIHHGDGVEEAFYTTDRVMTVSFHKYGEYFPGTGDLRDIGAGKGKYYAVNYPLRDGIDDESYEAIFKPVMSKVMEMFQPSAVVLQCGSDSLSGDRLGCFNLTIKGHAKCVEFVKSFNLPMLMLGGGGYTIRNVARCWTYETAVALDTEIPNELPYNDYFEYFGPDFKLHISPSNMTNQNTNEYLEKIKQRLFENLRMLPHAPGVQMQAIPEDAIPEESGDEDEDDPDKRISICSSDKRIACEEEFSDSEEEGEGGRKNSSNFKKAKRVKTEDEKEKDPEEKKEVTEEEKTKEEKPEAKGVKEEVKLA

`CC[C@H](C)[C@@H]1NC(=O)[C@@H](Cc2ccc(OC)cc2)NC(=O)[C@H](CCCCCSSc2ccc([N+](=O)[O-])c(C(=O)N(C)C)c2)NC(=O)[C@H]2CCCN2C1=O` [SCOP 403, cyclo(-L-Am7(SEll)-D-Tyr(Me)-L-Ile-D-Pro-)] (cyclo([hNle(7-SH)](X1)[dY](Me)I[dP])): the EC50 worked out at 0.748 µM in test [1] (setting [2]) and 1.8 µM in test [1] (Table 3, hybrid, without DTT). Besides, the IC50 came to 1.53 nM on human HDAC4 (setting [2]); 18.9 nM at human HDAC4 (Table 3, hybrid, without DTT); 4730 nM against mouse HDAC6 (setting [2]); 6080 nM against mouse HDAC6 (Table 3, hybrid, without DTT); 1.15 nM against human HDAC1 (setting [2]); 21.5 nM on human HDAC1 (Table 3, hybrid, without DTT).

In the case of `CC[C@H](C)[C@@H]1NC(=O)[C@@H](Cc2ccc(OC)cc2)NC(=O)[C@H](CCCCSSCCCC[C@@H]2NC(=O)[C@H]3CCCN3C(=O)[C@H]([C@@H](C)CC)NC(=O)[C@@H](Cc3ccc(OC)cc3)NC2=O)NC(=O)[C@H]2CCCN2C1=O` [SCOP 302, cyclo(-L-Am6(-)-D-Tyr(Me)-L-Ile-D-Pro-], the EC50 in test [1] (Table 2, homodimer) was more than 100 µM. Further, the half-inhibitory concentration (IC50) is more than 500000 nM against human HDAC4 (Table 2, homodimer); more than 500000 nM against mouse HDAC6 (Table 2, homodimer); 7200 nM against human HDAC1 (Table 2, homodimer).

In turn, `CC[C@H](C)[C@@H]1NC(=O)[C@@H](Cc2ccc(OC)cc2)NC(=O)[C@H](CCCCCCCSSCCCCCCC[C@@H]2NC(=O)[C@H]3CCCN3C(=O)[C@H]([C@@H](C)CC)NC(=O)[C@@H](Cc3ccc(OC)cc3)NC2=O)NC(=O)[C@H]2CCCN2C1=O` [SCOP 308, cyclo(-L-Am9(-)-D-Tyr(Me)-L-Ile-D-Pro-] yielded an EC50 in test [1] (Table 2, homodimer) of 235 µM. The IC50 turned out to be 505 nM against human HDAC4 (Table 2, homodimer); 745000 nM on mouse HDAC6 (Table 2, homodimer); 983 nM on human HDAC1 (Table 2, homodimer).

The compound `CC[C@H](C)[C@@H]1NC(=O)[C@@H](Cc2ccc(OC)cc2)NC(=O)[C@H](CCCCCS)NC(=O)[C@@H]2CCCN2C1=O` [SCOP 148] (cyclo([Gly((CH2)5SH)][dY](Me)IP)) came in with an EC50 in test [1] (setting [3]) of 6.72 µM. The IC50 at human HDAC4 (setting [4]) was 17 nM; on mouse HDAC6 (setting [4]), more than 500000 nM; against human HDAC1 (setting [4]), 81.4 nM.

Turning to `CC[C@H](C)[C@@H]1NC(=O)[C@@H](Cc2ccc(OC)cc2)NC(=O)[C@H](CCCCS)NC(=O)[C@H]2CCCN2C1=O` [SCOP 151], the EC50 in test [1] (setting [3]) is more than 100 µM. In addition, the IC50 against human HDAC4 (setting [4]) was found to be 7340 nM; against mouse HDAC6 (setting [4]) it was 28500 nM; on human HDAC1 (setting [4]), 932 nM.

On to `CC[C@H](C)[C@@H]1NC(=O)[C@@H](Cc2ccc(OC)cc2)NC(=O)[C@H](CCCCCCSSCCCCCC[C@@H]2NC(=O)[C@H]3CCCN3C(=O)[C@H]([C@@H](C)CC)NC(=O)[C@@H](Cc3ccc(OC)cc3)NC2=O)NC(=O)[C@H]2CCCN2C1=O` [SCOP 306, cyclo(-L-Am8(-)-D-Tyr(Me)-L-Ile-D-Pro-], for which the concentration for half-maximal inhibition (IC50) at human HDAC4 (Table 2, homodimer) came to 319 nM; against mouse HDAC6 (Table 2, homodimer) it was 1.32e+06 nM; on human HDAC1 (Table 2, homodimer), 153 nM.
